Here are results for 27 compounds from patent publication US12454529B2, “Piperazine cyclic ureas” (SIRONAX LTD., priority 2020, dated 2025).

Where two headings read alike, the source gives them in different places.

The subject of the experiment is HT-29 cells. In words: HT-29 cell necrosis/necroptosis inhibition (TNF-α + SMAC mimetic + zVAD-FMK; CellTiter-Glo cell viability). It counts as cell-based. As to conditions: Homo sapiens. The gist of the method:
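HT-29 cells (~5,000/well) were switched to FBS-free McCOY's 5A holding TNF-α (10 ng/ml), SMAC mimetic (6 μM) and zVAD-FMK (10 μM), then dosed with a 10-point 1:3 series for 20 h at 37 °C. CellTiter-Glo luminescence gave viability; geometric mean EC50 from duplicates.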
Background: In ATP-based viability assays light output follows the ATP content of the culture.

Setting [1] is: HT-29 cells, TNF-α 10 ng/ml + SMAC mimetic 6 μM + zVAD-FMK 10 μM, 20 hours, geometric mean, 10 points in duplicate, read-out: EC50 (Cell activity; Necrosis/Necroptosis Inhibitory Activity, Compounds 143-323).
The mark [2] stands for this setting: HT-29 cells, TNF-α 10 ng/ml + SMAC mimetic 6 μM + zVAD-FMK 10 μM, 20 hours, geometric mean, 10 points in duplicate, read-out: EC50 (Cell activity; Necrosis/Necroptosis Inhibitory Activity, Compounds 1-142).
The mark [3] stands for this setting: HT-29, 20 h, read-out: EC50 (Cell activity; Necrosis/Necroptosis Inhibitory Activity, Compounds 1-142).

The EC50 is the concentration that produces a half-maximal response. On to `Cc1ncn(-c2nc(N3CCN(C(=O)N4N=CC[C@H]4c4cncc(F)c4)CC3)ncc2F)n1` [Compound 311, (S)-(4-(5-fluoro-4-(3-methyl-1H-1,2,4-triazol-1-yl)pyrimidin-2-yl)piperazin-1-yl)(5-(5-fluoropyridin-3-yl)-4,5-dihydro-1H-pyrazol-1-yl)methanone], for which the EC50 under setting [1] lay within 0.1 to 100 nM.

Take `Cc1nnn(C)c1-c1nc(N2CCN(C(=O)N3N=CC[C@H]3c3cc(F)cc(C#N)c3)CC2)ncc1F` [Compound 70, (S)-3-(1-(4-(4-(1,4-dimethyl-1H-1,2,3-triazol-5-yl)-5-fluoropyrimidin-2-yl)piperazine-1-carbonyl)-4,5-dihydro-1H-pyrazol-5-yl)-5-fluorobenzonitrile]: the EC50 under setting [2] was in the range of 0.1 to 100 nM.

As to `Cn1ncnc1-c1nc(N2CCN(C(=O)N3N=CCC3c3ncccc3Cl)CC2)ncc1F` (stereo not drawn) [Compound 221], the concentration for a half-maximal effect (EC50) under setting [1] fell in the range of 0.1 to 100 nM.

Turning to `Cn1nc(C#N)nc1-c1nc(N2CCN(C(=O)N3N=CCC3c3cc(F)cc(F)c3)CC2)ncc1F` (stereo not drawn) [Compound 228, 5-(2-(4-(5-(3,5-difluorophenyl)-4,5-dihydro-1H-pyrazole-1-carbonyl)piperazin-1-yl)-5-fluoropyrimidin-4-yl)-1-methyl-1H-1,2,4-triazole-3-carbonitrile], the concentration for a half-maximal effect (EC50) under setting [1] fell in the range of 0.1 to 100 nM.

For `Cc1[nH]nnc1-c1nc(N2CCN(C(=O)N3N=CC[C@H]3c3cc(F)cc(F)c3)CC2)ncc1F` [Compound 30, (S)-(5-(3,5-difluorophenyl)-4,5-dihydro-1H-pyrazol-1-yl)(4-(5-fluoro-4-(5-methyl-1H-1,2,3-triazol-4-yl)pyrimidin-2-yl)piperazin-1-yl)methanone], the EC50 under setting [2] lay within 0.1 to 100 nM.

Take `O=C(N1CCN(c2nccc(-n3nnnc3C(F)(F)F)n2)CC1)N1N=CC[C@H]1c1ccccc1` [Compound 104, (S)-(5-phenyl-4,5-dihydro-1H-pyrazol-1-yl)(4-(4-(5-(trifluoromethyl)-1H-tetrazol-1-yl)pyrimidin-2-yl)piperazin-1-yl)methanone]: under setting [2], the EC50 was in the range of 0.1 to 100 nM.

Take `CC(=O)Nc1c(C)nn(-c2nc(N3CCN(C(=O)N4N=CC[C@H]4c4cc(F)cc(C#N)c4)CC3)ncc2F)c1C` [Compound 142, (S)—N-(1-(2-(4-(5-(3-cyano-5-fluorophenyl)-4,5-dihydro-1H-pyrazole-1-carbonyl)piperazin-1-yl)-5-fluoropyrimidin-4-yl)-3,5-dimethyl-1H-pyrazol-4-yl)acetamide]: the EC50 under setting [3] was 0.1 to 100 nM.

Consider `CCn1ncnc1-c1nc(N2CCN(C(=O)N3N=CC[C@H]3c3cc(F)cc(C#N)c3)CC2)ncc1Cl` [Compound 168, (S)-3-(1-(4-(5-chloro-4-(1-ethyl-1H-1,2,4-triazol-5-yl)pyrimidin-2-yl)piperazine-1-carbonyl)-4,5-dihydro-1H-pyrazol-5-yl)-5-fluorobenzonitrile], for which, under setting [1], the EC50 fell in the range of 0.1 to 100 nM.

Take `Cc1nc(C)n(-c2nc(N3CCN(C(=O)N4N=CC[C@H]4c4cc(F)cc(F)c4)CC3)ncc2F)n1` [Compound 46]: the EC50 under setting [2] lay within 0.1 to 100 nM.

As to `CCOC(=O)c1n[nH]c(C)c1-c1nc(N2CCN(C(=O)N3N=CC[C@H]3c3cc(F)cc(C#N)c3)CC2)ncc1F` [Compound 73, ethyl (S)-4-(2-(4-(5-(3-cyano-5-fluorophenyl)-4,5-dihydro-1H-pyrazole-1-carbonyl)piperazin-1-yl)-5-fluoropyrimidin-4-yl)-5-methyl-1H-pyrazole-3-carboxylat], the EC50 under setting [3] fell in the range of 0.1 to 100 nM.

Take `Cn1ncnc1-c1nc(N2CCN(C(=O)N3N=CC[C@H]3c3cc(F)cc(C#N)c3)CC2)ncc1F` [Compound 66, (S)-3-fluoro-5-(1-(4-(5-fluoro-4-(1-methyl-1H-1,2,4-triazol-5-yl)pyrimidin-2-yl)piperazine-1-carbonyl)-4,5-dihydro-1H-pyrazol-5-yl)benzonitrile]: the EC50 under setting [2] fell in the range of 0.1 to 100 nM.

Regarding `COC(=O)c1c[nH]c(-c2ccnc(N3CCN(C(=O)N4N=CC[C@H]4c4cc(F)cc(F)c4)CC3)n2)c1` [Compound 9, methyl (5)-5-(2-(4-(5-(3,5-difluorophenyl)-4,5-dihydro-1H-pyrazole-1-carbonyl)piperazin-1-yl)pyrimidin-4-yl)-1H-pyrrole-3-carboxylate], under setting [2], the EC50 fell in the range of 0.1 to 100 nM.

As to `Cc1nn(-c2ccnc(N3CCN(C(=O)N4N=CC[C@H]4c4cncc(F)c4)CC3)n2)c(C)c1Cl` [Compound 287, (S)-(4-(4-(4-chloro-3,5-dimethyl-1H-pyrazol-1-yl)pyrimidin-2-yl)piperazin-1-yl)(5-(5-fluoropyridin-3-yl)-4,5-dihydro-1H-pyrazol-1-yl)methanone], under setting [1], the EC50 was in the range of 0.1 to 100 nM.

On to `N#Cc1cccc([C@@H]2CC=NN2C(=O)N2CCN(c3nccc(-c4cc[nH]n4)n3)CC2)c1` [Compound 37, (S)-3-(1-(4-(4-(1H-pyrazol-3-yl)pyrimidin-2-yl)piperazine-1-carbonyl)-4,5-dihydro-1H-pyrazol-5-yl)benzonitrile], for which the EC50 under setting [2] fell in the range of 0.1 to 100 nM.

On to `[2H]C1(c2cc(F)cc(F)c2)CC=NN1C(=O)N1CCN(c2ncc(F)c(-n3nc(C)nc3C)n2)CC1` (stereo not drawn) [Compound 262, (5-(3,5-difluorophenyl)-4,5-dihydro-1H-pyrazol-1-yl-5-d)(4-(4-(3,5-dimethyl-1H-1,2,4-triazol-1-yl)-5-fluoropyrimidin-2-yl)piperazin-1-yl)methanone], for which the EC50 under setting [1] is 0.1 to 100 nM.

With `Cc1cnn(C)c1-c1ccc(F)c(N2CCN(C(=O)N3N=CCC3c3cncs3)CC2)n1` (stereo not drawn) [Compound 296, (4-(6-(1,4-dimethyl-1H-pyrazol-5-yl)-3-fluoropyridin-2-yl)piperazinyl)(5-(thiazol-5-yl)-4,5-dihydro-1H-pyrazol-1-yl)methanone], under setting [1], the concentration for a half-maximal effect (EC50) lay within 0.1 to 100 nM.

Consider `Cc1nc(C(=O)O)nn1-c1nc(N2CCN(C(=O)N3N=CC[C@H]3c3cc(F)cc(C#N)c3)CC2)ncc1F` [Compound 190], for which the EC50 under setting [1] lay in the range of 1000 to 10000 nM.

For `COC(=O)c1c[nH]c(-c2nc(N3CCN(C(=O)N4N=CC[C@H]4c4cc(F)cc(F)c4)CC3)ncc2F)c1` [Compound 12, methyl (S)-5-(2-(4-(5-(3,5-difluorophenyl)-4,5-dihydro-1H-pyrazole-1-carbonyl)piperazin-1-yl)-5-fluoropyrimidin-4-yl)-1H-pyrrole-3-carboxylate], the EC50 under setting [2] was in the range of 0.1 to 100 nM.

Regarding `Cc1nc(C#N)nn1-c1nc(N2CCN(C(=O)N3N=CC[C@H]3c3cncc(F)c3)CC2)ncc1F` [Compound 255, (S)-1-(5-fluoro-2-(4-(5-(5-fluoropyridin-3-yl)-4,5-dihydro-1H-pyrazole-1-carbonyl)piperazin-1-yl)pyrimidin-4-yl)-5-methyl-1H-1,2,4-triazole-3-carbonitrile], the EC50 under setting [1] lay in the range of 0.1 to 100 nM.

Take `O=C(N1CCN(c2nccc(-n3nnnc3C(F)(F)F)n2)CC1)N1N=CC[C@H]1c1cccc(F)c1` [Compound 103, (S)-(5-(3-fluorophenyl)-4,5-dihydro-1H-pyrazol-1-yl)(4-(4-(5-(trifluoromethyl)-1H-tetrazol-1-yl)pyrimidin-2-yl)piperazin-1-yl)methanone]: under setting [2], the EC50 lay in the range of 0.1 to 100 nM.

As to `N#Cc1cc(F)cc([C@@H]2CC=NN2C(=O)N2CCN(c3ncc(F)c(-c4ncc[nH]4)n3)CC2)c1` [Compound 112, (S)-3-fluoro-5-(1-(4-(5-fluoro-4-(1H-imidazol-2-yl)pyrimidin-2-yl)piperazine-1-carbonyl)-4,5-dihydro-1H-pyrazol-5-yl)benzonitrile], the EC50 under setting [2] is 0.1 to 100 nM.

Consider `Cc1nn(CCO)c(C)c1-c1nc(N2CCN(C(=O)N3N=CC[C@H]3c3cc(F)cc(C#N)c3)CC2)ncc1F` [Compound 124, (S)-3-fluoro-5-(1-(4-(5-fluoro-4-(1-(2-hydroxyethyl)-3,5-dimethyl-1H-pyrazol-4-yl)pyrimidin-2-yl)piperazine-1-carbonyl)-4,5-dihydro-1H-pyrazol-5-yl)benzonitrile], for which, under setting [2], the EC50 lay within 0.1 to 100 nM.

With `O=C(N1CCN(c2ncc(F)c(-n3cnc(C(F)(F)F)n3)n2)CC1)N1N=CC[C@H]1c1cncc(F)c1` [Compound 314, (S)-(4-(5-fluoro-4-(3-(trifluoromethyl)-1H-1,2,4-triazol-1-yl)pyrimidin-2-yl)piperazin-1-yl)(5-(5-fluoropyridin-3-yl)-4,5-dihydro-1H-pyrazol-1-yl)methanone], under setting [1], the EC50 was in the range of 0.1 to 100 nM.

As to `Cc1cnn(C)c1-c1nc(N2CCN(C(=O)N3N=CC[C@H]3c3cc(F)cc(F)c3)CC2)ccc1F` [Compound 113, (S)-(5-(3,5-difluorophenyl)-4,5-dihydro-1H-pyrazol-1-yl)(4-(6-(1,4-dimethyl-1H-pyrazol-5-yl)-5-fluoropyridin-2-yl)piperazin-1-yl)methanone], the EC50 under setting [2] is 0.1 to 100 nM.

Regarding `Cc1nn(-c2nc(N3CCN(C(=O)N4N=CC[C@H]4c4cc(F)cc(C#N)c4)CC3)ncc2F)c(C)c1S(C)(=O)=O` [Compound 204, (S)-3-(1-(4-(4-(3,5-dimethyl-4-(methylsulfonyl)-1H-pyrazol-1-yl)-5-fluoropyrimidinyl)piperazine-1-carbonyl)-4,5-dihydro-1H-pyrazol-5-yl)-5-fluorobenzonitrile], under setting [1], the EC50 lay within 0.1 to 100 nM.

Regarding `N#Cc1cc(F)cc([C@@H]2CC=NN2C(=O)N2CCN(c3ncc(F)c(-c4ccc(O)nc4)n3)CC2)c1` [Compound 48, (S)-3-fluoro-5-(1-(4-(5-fluoro-4-(6-hydroxypyridin-3-yl)pyrimidin-2-yl)piperazine-1-carbonyl)-4,5-dihydro-1H-pyrazol-5-yl)benzonitrile], the EC50 under setting [2] fell in the range of 0.1 to 100 nM.

Regarding `Cc1nc(C)n(-c2ccnc(N3CCN(C(=O)N4N=CC[C@H]4c4cc(F)cc(F)c4)CC3)n2)n1` [Compound 100, (S)-(5-(3,5-difluorophenyl)-4,5-dihydro-1H-pyrazol-1-yl)(4-(4-(3,5-dimethyl-1H-1,2,4-triazol-1-yl)pyrimidin-2-yl)piperazin-1-yl)methanone], under setting [2], the concentration for a half-maximal effect (EC50) is 0.1 to 100 nM.
